# Reference: publication PMC9186362, “Design and biological evaluation of substituted 5,7-dihydro-6H-indolo[2,3-c]quinolin-6-one as novel selective Haspin inhibitors” (Journal of Enzyme Inhibition and Medicinal Chemistry, 2022)
# How the values were obtained:
# U-2 OS cells = experiment: Cell cycle analysis by flow cytometry; format: cell-based, human; conditions: 1 µM, 24 h
# Method: After treatment with the compounds, cells were trypsinized and washed once in PBS. Cells were fixed for 1 h in ice-cold 70% ethanol, then washed once in PBS, centrifuged at 200 g and resuspended in a PBS buffer containing 100 µg/ml RNase A (Thermo Scientific) and 40 µg/ml propidium iodide (Life Technologies). DNA content was determined using a flow cytometer Attune^TM NxT (Thermofisher) and ten thousand events were collected in each run. The data were analysed using FCS Express 7 Pro software (De Novo).
# HsCdk9/Cyc E = HsCdk9/Cyc E (Homo sapiens, UniProt P50750); experiment: ADP-Glo kinase assay; format: biochemical, Homo sapiens (Hs); conditions: mean n = 2, % of maximum activity of DMSO control, read-out: % Residual activity at 1 μM CDK9
# Chain of HsCdk9/Cyc E (P50750 whole entry): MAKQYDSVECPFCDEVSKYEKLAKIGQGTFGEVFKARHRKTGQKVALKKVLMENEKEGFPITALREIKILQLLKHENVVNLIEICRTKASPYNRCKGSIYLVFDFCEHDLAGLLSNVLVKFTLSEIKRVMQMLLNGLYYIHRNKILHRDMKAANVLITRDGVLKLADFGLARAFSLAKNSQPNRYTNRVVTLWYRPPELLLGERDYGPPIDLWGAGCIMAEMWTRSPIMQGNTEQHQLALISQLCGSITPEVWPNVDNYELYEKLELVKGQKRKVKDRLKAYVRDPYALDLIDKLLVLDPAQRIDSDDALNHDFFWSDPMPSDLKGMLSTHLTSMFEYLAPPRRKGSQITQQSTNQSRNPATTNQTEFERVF
# Chain of HsCdk9/Cyc E (O60563 whole entry partner): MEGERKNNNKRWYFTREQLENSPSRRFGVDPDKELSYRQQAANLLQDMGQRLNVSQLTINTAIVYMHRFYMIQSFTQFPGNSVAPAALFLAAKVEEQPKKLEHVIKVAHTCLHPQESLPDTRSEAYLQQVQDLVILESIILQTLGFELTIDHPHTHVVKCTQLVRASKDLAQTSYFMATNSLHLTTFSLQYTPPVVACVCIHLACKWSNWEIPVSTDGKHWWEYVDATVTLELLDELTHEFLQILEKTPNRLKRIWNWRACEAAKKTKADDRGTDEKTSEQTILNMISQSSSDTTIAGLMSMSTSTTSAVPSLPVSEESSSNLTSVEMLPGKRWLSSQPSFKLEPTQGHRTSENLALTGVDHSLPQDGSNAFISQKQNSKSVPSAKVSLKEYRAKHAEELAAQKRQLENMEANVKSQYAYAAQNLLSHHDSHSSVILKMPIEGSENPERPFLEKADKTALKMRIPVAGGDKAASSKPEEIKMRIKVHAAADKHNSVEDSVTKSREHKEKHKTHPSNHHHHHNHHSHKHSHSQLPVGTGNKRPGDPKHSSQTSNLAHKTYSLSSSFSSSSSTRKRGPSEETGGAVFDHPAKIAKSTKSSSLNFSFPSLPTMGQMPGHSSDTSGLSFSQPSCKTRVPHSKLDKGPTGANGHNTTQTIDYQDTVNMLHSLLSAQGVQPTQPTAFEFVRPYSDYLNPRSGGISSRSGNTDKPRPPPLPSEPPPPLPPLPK
# Method: (§1) Kinase activities were determined using the ADP-Glo methodology (ADP-Glo Kinase Assay; Promega) according to the assay described by Nguyen et al.[32] except for MmCLK1. The later was assayed in the following buffer: 10 mM MgCl2, 1 mM EGTA, 1 mM DTT, 25 mM Tris-HCl pH 7.5, 50 µg/ml heparin, 0.15 mg/ml BSA, with 0.027 µg/µl of the following peptide: GRSRSRSRSRSR as substrate.
# HsHaspin = biological target: T1, HsHaspin (Homo sapiens, UniProt Q8TF76); experiment: ADP-Glo kinase assay; format: biochemical, Homo sapiens (Hs)
# T1 sequence (Q8TF76 1-798): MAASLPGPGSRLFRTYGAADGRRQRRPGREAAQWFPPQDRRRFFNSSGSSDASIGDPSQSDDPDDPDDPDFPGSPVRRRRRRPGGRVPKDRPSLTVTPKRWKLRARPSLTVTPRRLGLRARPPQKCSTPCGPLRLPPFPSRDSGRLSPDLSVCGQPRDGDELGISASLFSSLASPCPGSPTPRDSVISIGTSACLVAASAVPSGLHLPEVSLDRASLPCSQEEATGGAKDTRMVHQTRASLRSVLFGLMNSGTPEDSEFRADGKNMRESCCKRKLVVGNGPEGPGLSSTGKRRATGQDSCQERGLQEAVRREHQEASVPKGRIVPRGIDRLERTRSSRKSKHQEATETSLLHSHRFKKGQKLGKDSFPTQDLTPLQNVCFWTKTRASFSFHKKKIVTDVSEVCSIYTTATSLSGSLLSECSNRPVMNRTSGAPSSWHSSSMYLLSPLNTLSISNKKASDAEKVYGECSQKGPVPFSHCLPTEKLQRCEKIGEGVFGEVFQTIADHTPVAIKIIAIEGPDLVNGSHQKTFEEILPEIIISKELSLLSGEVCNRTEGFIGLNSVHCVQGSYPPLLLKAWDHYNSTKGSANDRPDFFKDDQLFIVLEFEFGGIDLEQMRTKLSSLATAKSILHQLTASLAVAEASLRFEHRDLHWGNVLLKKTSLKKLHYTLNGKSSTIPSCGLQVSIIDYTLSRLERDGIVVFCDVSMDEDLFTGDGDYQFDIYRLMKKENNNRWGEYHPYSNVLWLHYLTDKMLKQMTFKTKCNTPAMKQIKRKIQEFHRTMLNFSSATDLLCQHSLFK
# Method: as §1
# HsCdk5/p25 = HsCdk5/p25 (Homo sapiens, UniProt Q00535); experiment: ADP-Glo kinase assay; format: biochemical, Homo sapiens (Hs); conditions: mean n = 2, % of maximum activity of DMSO control, read-out: % Residual activity at 1 μM CDK5
# Chain of HsCdk5/p25 (Q00535 whole entry): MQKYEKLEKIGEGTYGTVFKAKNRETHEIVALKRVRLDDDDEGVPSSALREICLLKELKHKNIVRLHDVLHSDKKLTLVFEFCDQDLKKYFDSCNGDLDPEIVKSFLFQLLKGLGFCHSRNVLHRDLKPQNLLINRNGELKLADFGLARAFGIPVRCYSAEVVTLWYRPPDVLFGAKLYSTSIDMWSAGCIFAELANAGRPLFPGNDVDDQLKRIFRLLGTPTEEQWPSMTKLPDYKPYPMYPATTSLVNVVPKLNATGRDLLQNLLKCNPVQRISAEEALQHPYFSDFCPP
# Chain of HsCdk5/p25 (Q15078 99-307 partner limits assumed): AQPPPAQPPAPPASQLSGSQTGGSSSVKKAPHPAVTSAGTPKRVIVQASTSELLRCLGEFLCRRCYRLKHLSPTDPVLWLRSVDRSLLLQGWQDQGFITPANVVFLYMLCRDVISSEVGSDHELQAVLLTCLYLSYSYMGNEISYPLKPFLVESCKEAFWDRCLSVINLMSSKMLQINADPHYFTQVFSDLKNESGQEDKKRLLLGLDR
# Method: as §1
# HsGSK3β = HsGSK3β (Homo sapiens, UniProt P49841); experiment: ADP-Glo kinase assay; format: biochemical, Homo sapiens (Hs); conditions: mean n = 2, % of maximum activity of DMSO control, read-out: % Residual activity at 1 μM GSK3β
# Chain of HsGSK3β (P49841 whole entry): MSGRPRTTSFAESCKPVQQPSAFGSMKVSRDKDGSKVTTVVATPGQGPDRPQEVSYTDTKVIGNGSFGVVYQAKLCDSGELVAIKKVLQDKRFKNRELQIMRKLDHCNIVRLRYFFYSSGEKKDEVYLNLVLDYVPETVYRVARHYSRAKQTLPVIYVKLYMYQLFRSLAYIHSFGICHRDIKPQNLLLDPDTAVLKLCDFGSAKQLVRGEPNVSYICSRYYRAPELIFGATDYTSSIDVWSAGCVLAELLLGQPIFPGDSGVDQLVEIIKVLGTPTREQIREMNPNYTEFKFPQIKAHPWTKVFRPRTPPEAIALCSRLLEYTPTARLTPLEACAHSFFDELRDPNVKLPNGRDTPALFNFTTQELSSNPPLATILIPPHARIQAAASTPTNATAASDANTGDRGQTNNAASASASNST
# Method: as §1
# HsCdk2/Cyc A = HsCdk2/Cyc A (Homo sapiens, UniProt P24941); experiment: ADP-Glo kinase assay; format: biochemical, Homo sapiens (Hs); conditions: mean n = 2, % of maximum activity of DMSO control, read-out: % Residual activity at 1 μM CDK2
# Method: as §1
# HsPIM1 = HsPIM1 (Homo sapiens, UniProt P11309); experiment: ADP-Glo kinase assay; format: biochemical, Homo sapiens (Hs); conditions: mean n = 2, % of maximum activity of DMSO control, read-out: % Residual activity at 1 μM PIM1
# Chain of HsPIM1 (P11309 whole entry): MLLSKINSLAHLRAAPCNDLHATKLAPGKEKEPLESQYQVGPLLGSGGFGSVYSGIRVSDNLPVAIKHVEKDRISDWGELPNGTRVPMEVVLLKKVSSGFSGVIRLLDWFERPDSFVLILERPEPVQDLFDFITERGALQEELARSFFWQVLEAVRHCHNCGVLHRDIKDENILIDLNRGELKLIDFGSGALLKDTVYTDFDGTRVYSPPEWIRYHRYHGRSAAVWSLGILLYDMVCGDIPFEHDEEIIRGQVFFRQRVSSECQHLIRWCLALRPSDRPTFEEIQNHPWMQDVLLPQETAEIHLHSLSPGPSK
# Method: as §1
# CDC42 BPB (MRCKB) = biological target: T2, CDC42 BPB (MRCKB) (Homo sapiens, UniProt Q9Y5S2); experiment: SelectScreen ZLYTE; format: biochemical; conditions: ATP Km, read-out: Percentage of inhibition
# T2 construct: purchased Life Technologies (SelectScreen Whole Panel service)
# T2 sequence (Q9Y5S2 whole entry): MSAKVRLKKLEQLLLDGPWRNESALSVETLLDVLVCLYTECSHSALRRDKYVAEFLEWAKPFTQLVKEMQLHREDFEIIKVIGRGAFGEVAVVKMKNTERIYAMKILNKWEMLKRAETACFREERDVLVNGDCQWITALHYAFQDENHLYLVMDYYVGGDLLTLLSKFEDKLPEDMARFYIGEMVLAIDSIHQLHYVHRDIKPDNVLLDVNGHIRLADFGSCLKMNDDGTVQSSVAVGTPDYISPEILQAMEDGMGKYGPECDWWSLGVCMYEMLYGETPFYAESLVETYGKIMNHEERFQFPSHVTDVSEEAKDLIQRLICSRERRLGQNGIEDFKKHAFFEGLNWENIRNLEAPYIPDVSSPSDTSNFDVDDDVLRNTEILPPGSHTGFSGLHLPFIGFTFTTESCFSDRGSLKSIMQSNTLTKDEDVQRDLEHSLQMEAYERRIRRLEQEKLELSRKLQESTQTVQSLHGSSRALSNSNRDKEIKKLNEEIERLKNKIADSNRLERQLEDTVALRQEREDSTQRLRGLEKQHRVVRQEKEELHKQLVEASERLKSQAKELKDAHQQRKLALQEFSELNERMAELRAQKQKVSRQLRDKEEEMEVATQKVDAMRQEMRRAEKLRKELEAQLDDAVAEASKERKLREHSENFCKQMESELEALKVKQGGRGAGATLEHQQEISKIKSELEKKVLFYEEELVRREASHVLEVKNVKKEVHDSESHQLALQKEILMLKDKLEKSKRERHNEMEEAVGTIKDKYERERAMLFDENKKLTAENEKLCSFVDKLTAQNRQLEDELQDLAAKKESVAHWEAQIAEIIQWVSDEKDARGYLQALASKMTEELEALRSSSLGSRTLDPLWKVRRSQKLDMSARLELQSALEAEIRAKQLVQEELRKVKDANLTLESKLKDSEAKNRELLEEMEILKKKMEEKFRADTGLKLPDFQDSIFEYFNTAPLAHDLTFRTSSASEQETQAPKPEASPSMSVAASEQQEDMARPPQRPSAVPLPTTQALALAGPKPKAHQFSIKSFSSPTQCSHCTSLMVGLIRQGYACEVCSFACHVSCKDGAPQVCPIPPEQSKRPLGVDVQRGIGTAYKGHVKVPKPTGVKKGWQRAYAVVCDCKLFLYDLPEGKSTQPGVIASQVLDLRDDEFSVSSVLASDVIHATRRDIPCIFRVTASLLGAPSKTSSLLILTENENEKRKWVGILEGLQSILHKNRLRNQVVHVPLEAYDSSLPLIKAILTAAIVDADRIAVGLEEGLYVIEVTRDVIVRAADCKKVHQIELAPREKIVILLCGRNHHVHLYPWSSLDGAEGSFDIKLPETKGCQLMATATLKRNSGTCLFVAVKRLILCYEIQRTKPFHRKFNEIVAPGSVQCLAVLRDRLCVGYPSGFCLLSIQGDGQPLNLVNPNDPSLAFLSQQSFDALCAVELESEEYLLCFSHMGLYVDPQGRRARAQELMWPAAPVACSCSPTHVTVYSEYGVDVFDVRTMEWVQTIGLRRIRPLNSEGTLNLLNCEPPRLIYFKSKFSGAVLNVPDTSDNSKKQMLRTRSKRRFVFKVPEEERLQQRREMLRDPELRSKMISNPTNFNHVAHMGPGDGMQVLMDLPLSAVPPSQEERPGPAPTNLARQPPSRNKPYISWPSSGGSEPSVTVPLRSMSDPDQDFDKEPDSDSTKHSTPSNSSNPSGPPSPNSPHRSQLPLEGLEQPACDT
# Method in brief: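 Readout is % inhibition. The inhibitor was applied at 1 μM against every kinase of an extensive commercial panel.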
# MmCLK1 = MmCLK1 (Mus musculus, UniProt P22518); experiment: ADP-Glo kinase assay; format: biochemical, Mus musculus (Mm)
# Chain of MmCLK1 (P22518 whole entry): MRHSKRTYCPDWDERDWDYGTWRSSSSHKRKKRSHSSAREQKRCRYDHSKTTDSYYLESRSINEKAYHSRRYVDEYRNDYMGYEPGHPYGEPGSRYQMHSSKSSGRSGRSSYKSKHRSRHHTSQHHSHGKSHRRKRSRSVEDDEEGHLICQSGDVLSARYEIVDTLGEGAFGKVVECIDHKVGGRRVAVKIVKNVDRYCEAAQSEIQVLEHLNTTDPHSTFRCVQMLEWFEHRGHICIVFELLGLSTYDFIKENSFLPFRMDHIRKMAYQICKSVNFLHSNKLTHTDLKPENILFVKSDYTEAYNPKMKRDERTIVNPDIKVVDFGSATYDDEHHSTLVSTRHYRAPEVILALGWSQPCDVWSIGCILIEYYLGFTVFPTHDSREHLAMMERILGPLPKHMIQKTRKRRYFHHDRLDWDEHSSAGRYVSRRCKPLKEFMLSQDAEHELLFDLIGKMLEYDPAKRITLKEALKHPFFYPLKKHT
# Method: as §1
# [1] = system: endogenous Haspin (H3T3ph) in U-2 OS cells; experiment: Endogenous Haspin activity, H3T3ph immunofluorescence; format: cell-based, human; conditions: 0.5 µM, 16 h, early mitotic U-2 OS cells
# Method: U-2 OS cells were grown on glass coverslips, treated for 16 h than fixed with 4% paraformaldehyde in PBS, permeabilized by 0.15% Triton-X100 for 2 min, blocked for 15 min in 4% BSA in PBS and processed using standard immunofluorescence protocols. Primary antibodies included anti-phospho-Thr3 Histone H3 (1/1000 dilution, Millipore) and anti-α-tubulin (1/5000 dilution, clone B512, Sigma). Images were acquired with a Coolsnap HQ2 CCD camera (Photometrics) on a Zeiss Axio microscope (Carl Zeiss) using a 63x NA 1.40 objective. Image acquisition and processing were performed using Metamorph (Molecular Device). Quantification of signal intensity was performed using ImageJ software (NIH).
compound,measurement,setting,value
"COc1ccc2[nH]c3c(=O)[nH]c4ccc(O)cc4c3c2c1 [Compound 55, 2-Hydroxy-10-methoxy-5,7-dihydro-6H-indolo[2,3-c]quinolin-6-one]",melting point,,202 to 205 °C
same,% of cycling cells G2/M,U-2 OS cells; DMSO control 6%,20%
same,% of cycling cells S,U-2 OS cells; DMSO control 44%,44%
same,% of cycling cells G1,U-2 OS cells; DMSO control 50%,36%
same,remaining activity at 1 µM,HsCdk9/Cyc E,17%
same,remaining activity at 1 µM,"HsHaspin; 1 μM, mean n = 2, % of maximum activity of DMSO control, read-out: % Residual activity at 1 μM Haspin",0%
same,IC50,"HsHaspin; dose-response curve, each point in duplicate, read-out: Kinase inhibition (IC50) Haspin",2 nM
same,remaining activity at 1 µM,HsCdk5/p25,53%
same,remaining activity at 1 µM,HsGSK3β,20%
same,remaining activity at 1 µM,HsCdk2/Cyc A,38%
same,remaining activity at 1 µM,HsPIM1,22%
same,inhibition at 1 µM,CDC42 BPB (MRCKB),10%
same,remaining activity at 1 µM,"MmCLK1; 1 μM, mean n = 2, % of maximum activity of DMSO control, read-out: % Residual activity at 1 μM CLK1",14%
same,Selectivity index CLK1/Haspin,MmCLK1; IC50 CLK1/IC50 Haspin,17
same,IC50,"MmCLK1; dose-response curve, each point in duplicate, read-out: Kinase inhibition (IC50) CLK1",33 nM
same,Inhibition of intracellular Haspin (H3T3ph signal),[1],could inhibit intracellular Haspin
